Results from patent publication US11001570B2, “6-amino-quinolinone compounds and derivatives as BCL6 inhibitors” (Boehringer Ingelheim International GmbH, priority 2016, dated 2021).

Target: T1, BCL6::BCOR (Homo sapiens, UniProt P41182, C67R/C84N/C8Q)
T1 construct: BCL6 (amino acids 5 to 129, with the following changes to the natural protein); made in house; host or cells: E. coli
Experiment: BCL6::BCOR ULight TR-FRET assay
Assay type: binding
Source text: Biological Methods BCL6::BCOR ULight TR-FRET Assay:
Biotinylated BCL6 protein corresponding to BCL6 (amino acids 5 to 129, with the following changes to the natural protein: C8Q, C67R, C84N) is expressed in E. coli with a carboxy-terminal Avi tag (amino acid sequence […]). The BCOR ULight peptide uses a direct carboxy-terminal ULight tag (PerkinElmer). The sequence of the peptide is CRSEIISTAPSSWVVPGP, with the amino terminus acetylated and the ULight tag attached to the cysteine. Compounds are dispensed onto assay plates (Proxiplate 384 PLUS, white, PerkinElmer) using an Access Labcyte Workstation with the Labcyte Echo 55×from a DMSO solution. For the chosen highest assay concentration of 100 μM, 150 nl of compound solution are transferred from a 10 mM DMSO compound stock solution. A series of 11 concentrations is transferred for each compound at which each concentration is fivefold lower than the previous one. DMSO is added such that every well has a total of 150 nl compound solution. 5 μL of 1 nM BCL6 protein in assay buffer (50 mM HEPES pH 7.3; 125 mM NaCl; 1 mM GSH; 0.01% Triton-X 100; 0.03% BSA) are added to the 150 nl of compounds. After 30 minutes incubation time at room temperature, 10 μL of a mix containing BCOR ULight peptide (100 nM final assay concentration) and Streptavidin-Europium (0.75 nM final assay concentration) are added. Plates are kept at room temperature. After 240 minutes incubation time the TR-FRET signal is measured in a PerkinElmer Envision HTS Multilabel Reader using the TR-FRET LANCE Ultra specs of PerkinElmer. Each plate contains negative controls (diluted DMSO instead of test compound; BCOR peptide and Streptavidin Europium mix with BCL6 protein) and positive controls (diluted DMSO instead of test compound; BCOR peptide and Streptavidin-Europium mix without BCL6 protein). Negative and positive control values are used for normalization.

| IC50 [nM] | SMILES |
| --- | --- |
| 8 | CNC(=O)COc1cc2cc(Nc3nc(N4CCN(CC(=O)O)CC4)ncc3Cl)ccc2n(C)c1=O [Compound I-63] |
| 9 | CNC(=O)COc1cc2cc(Nc3nc(N4C[C@H](F)C[C@@H](F)C4)ncc3Cl)ccc2n(C)c1=O [Compound I-64] |
| 23 | CNC(=O)COc1cc2cc(Nc3nc(N4C[C@H](F)C[C@H](F)C4)ncc3Cl)ccc2n(C)c1=O [Compound I-65] |
| 5 | CNC(=O)COc1cc2cc(Nc3nc(N4CCC[C@H](C)C4)ncc3Cl)ccc2n(C)c1=O [Compound I-66] |
| 5 | CNC(=O)COc1cc2cc(Nc3nc(N4CCc5cn[nH]c5C4)ncc3Cl)ccc2n(C)c1=O [Compound I-67] |
| 7 | CNC(=O)COc1cc2cc(Nc3nc(N4CCc5cnn(C)c5C4)ncc3Cl)ccc2n(C)c1=O [Compound I-68] |
| 23 | CNC(=O)COc1cc2cc(Nc3nc(N4CCCC(C)(C#N)C4)ncc3Cl)ccc2n(C)c1=O (stereo not shown) [Compound I-69] |
| 7 | CNC(=O)COc1cc2cc(Nc3nc(N4CCC[C@@H](C)C4)ncc3Cl)ccc2n(C)c1=O [Compound I-70] |
| 9 | CNC(=O)COc1cc2cc(Nc3nc(N4CCCC(C)(C)C4)ncc3Cl)ccc2n(C)c1=O [Compound I-71] |
| 9 | CNC(=O)COc1cc2cc(Nc3nc(N4CC5CCCC5C4)ncc3Cl)ccc2n(C)c1=O (stereo not shown) [Compound I-72] |
| 4 | CCn1c(=O)c(OCC(=O)NC)cc2cc(Nc3nc(N4CCC(C(=O)O)CC4)ncc3Cl)ccc21 [Compound I-73] |
| 5 | CCn1c(=O)c(OCC(=O)NC)cc2cc(Nc3nc(N4C[C@H](C)C[C@H](C)C4)ncc3Cl)ccc21 [Compound I-74] |
| 5 | CCn1c(=O)c(OCC(=O)NC)cc2cc(Nc3nc(N4CCC(F)CC4)ncc3Cl)ccc21 [Compound I-75] |
| 5 | CCn1c(=O)c(OCC(=O)NC)cc2cc(Nc3nc(N4CCC(F)(F)CC4)ncc3Cl)ccc21 [Compound I-76] |
| 8 | CCn1c(=O)c(OCC(=O)NC)cc2cc(Nc3nc(N4CCC[C@@H](C)C4)ncc3Cl)ccc21 [Compound I-77] |
| 4 | CCCn1c(=O)c(OCC(=O)NC)cc2cc(Nc3nc(N4CCC(C(=O)O)CC4)ncc3Cl)ccc21 [Compound I-78] |
| 11 | CCCn1c(=O)c(OCC(=O)NC)cc2cc(Nc3nc(N4C[C@H](C)C[C@H](C)C4)ncc3Cl)ccc21 [Compound I-79] |
| 7 | CCCn1c(=O)c(OCC(=O)NC)cc2cc(Nc3nc(N4CCC(F)CC4)ncc3Cl)ccc21 [Compound I-80] |
| 7 | CCCn1c(=O)c(OCC(=O)NC)cc2cc(Nc3nc(N4CCC(F)(F)CC4)ncc3Cl)ccc21 [Compound I-81] |
| 4 | CNC(=O)COc1cc2cc(Nc3nc(N4CCC(C(=O)O)CC4)ncc3Cl)ccc2n(C(C)C)c1=O [Compound I-82] |
| 12 | CNC(=O)COc1cc2cc(Nc3nc(N4C[C@H](C)C[C@H](C)C4)ncc3Cl)ccc2n(C(C)C)c1=O [Compound I-83] |
| 10 | CNC(=O)COc1cc2cc(Nc3nc(N4CCC(F)CC4)ncc3Cl)ccc2n(C(C)C)c1=O [Compound I-84] |
| 9 | CNC(=O)COc1cc2cc(Nc3nc(N4CCC(F)(F)CC4)ncc3Cl)ccc2n(C(C)C)c1=O [Compound I-85] |
| 3 | CNC(=O)COc1cc2cc(Nc3nc(N4CCC(C(=O)O)CC4)ncc3Cl)ccc2n(CC2CC2)c1=O [Compound I-86] |
| 15 | CNC(=O)COc1cc2cc(Nc3nc(N4C[C@H](C)C[C@H](C)C4)ncc3Cl)ccc2n(CC2CC2)c1=O [Compound I-87] |
| 6 | CNC(=O)COc1cc2cc(Nc3nc(N4CCC(F)CC4)ncc3Cl)ccc2n(CC2CC2)c1=O [Compound I-88] |

| IC50 [nM] | SMILES |
| --- | --- |
| 8 | CNC(=O)COc1cc2cc(Nc3nc(N4CCC(F)(F)CC4)ncc3Cl)ccc2n(CC2CC2)c1=O [Compound I-89] |
| 7 | CNC(=O)COc1cc2cc(Nc3nc(N4CCC(C(=O)N5CCN(C)CC5)CC4)ncc3Cl)ccc2n(C)c1=O [Compound I-90] |
| 7 | CNC(=O)COc1cc2cc(Nc3nc(N4CCN(CCC(=O)O)CC4)ncc3Cl)ccc2n(C)c1=O [Compound I-91] |
| 5 | CNC(=O)COc1cc2cc(Nc3nc(N4CCN(CCC(=O)O)C(=O)C4)ncc3Cl)ccc2n(C)c1=O [Compound I-92] |
| 4 | CNC(=O)COc1cc2cc(Nc3nc(N4CCC(CC(=O)O)CC4)ncc3Cl)ccc2n(C)c1=O [Compound I-93] |
| 2 | CNC(=O)COc1cc2cc(Nc3nc(N4CCC(C(=O)O)CC4)ncc3Cl)cc(OC)c2n(C)c1=O [Compound I-94] |
| 2 | CNC(=O)COc1cc2cc(Nc3nc(N4CCC[C@@H](C(=O)O)C4)ncc3Cl)cc(OC)c2n(C)c1=O [Compound I-95] |
| 2 | CNC(=O)COc1cc2cc(Nc3nc(N4CCC[C@H](C(=O)O)C4)ncc3Cl)cc(OC)c2n(C)c1=O [Compound I-96] |
| 4 | CNC(=O)COc1cc2cc(Nc3nc(N4CCC(F)(F)CC4)ncc3Cl)cc(OC)c2n(C)c1=O [Compound I-97] |
| 4 | CNC(=O)COc1cc2cc(Nc3nc(N4CCC(F)CC4)ncc3Cl)cc(OC)c2n(C)c1=O [Compound I-98] |
| 7 | CNC(=O)COc1cc2cc(Nc3nc(N4C[C@H](C)C[C@H](C)C4)ncc3Cl)cc(OC)c2n(C)c1=O [Compound I-99] |
| 12 | C[C@@H]1C[C@H](C)CN(c2ncc(F)c(Nc3ccc4c(c3)cc(OCC(=O)O)c(=O)n4C)n2)C1 [Compound I-100] |
| 10 | Cn1c(=O)c(OCC(=O)O)cc2cc(Nc3nc(N4CCC(Nc5ncccn5)CC4)ncc3Cl)ccc21 [Compound I-101] |
| 7 | Cn1c(=O)c(OCC(=O)O)cc2cc(Nc3nc(N4CCC(C(=O)O)CC4)ncc3Cl)ccc21 [Compound I-102] |
| 10 | Cn1c(=O)c(OCC(=O)O)cc2cc(Nc3nc(N4CCC5(CC4)OCCCO5)ncc3Cl)ccc21 [Compound I-103] |
| 10 | CCOC(=O)CC1CCCN(c2ncc(Cl)c(Nc3ccc4c(c3)cc(OCC(=O)O)c(=O)n4C)n2)C1 (stereo not shown) [Compound I-104] |
| 114 | Cn1c(=O)c(OCC(=O)O)cc2cc(Nc3nc(N4CCCN(c5ccccc5)CC4)ncc3Cl)ccc21 [Compound I-105] |
| 210 | Cn1c(=O)c(OCC(=O)O)cc2cc(Nc3nc(N4CCc5ccccc5CC4)ncc3Cl)ccc21 [Compound I-106] |
| 10 | CCNC(=O)C1CCCN(c2ncc(Cl)c(Nc3ccc4c(c3)cc(OCC(=O)O)c(=O)n4C)n2)C1 (stereo not shown) [Compound I-107] |
| 38 | Cn1c(=O)c(OCC(=O)O)cc2cc(Nc3nc(N4C[C@H]5C[C@@H](C4)c4ccccc45)ncc3Cl)ccc21 [Compound I-108] |
| 21 | Cn1c(=O)c(OCC(=O)O)cc2cc(Nc3nc(N4CCC(c5ccccc5)CC4)ncc3Cl)ccc21 [Compound I-109] |
| 17 | COCCN1CCN(c2ncc(Cl)c(Nc3ccc4c(c3)cc(OCC(=O)O)c(=O)n4C)n2)CC1C (stereo not shown) [Compound I-110] |
| 108 | Cn1c(=O)c(OCC(=O)O)cc2cc(Nc3nc(N4CCC5(CCCCC5)CC4)ncc3Cl)ccc21 [Compound I-111] |
| 7 | CCOC1CCCN(c2ncc(Cl)c(Nc3ccc4c(c3)cc(OCC(=O)O)c(=O)n4C)n2)C1 (stereo not shown) [Compound I-112] |
| 7 | C#CC1CCN(c2ncc(Cl)c(Nc3ccc4c(c3)cc(OCC(=O)O)c(=O)n4C)n2)CC1 [Compound I-113] |
| 9 | CC1CN(c2ncc(Cl)c(Nc3ccc4c(c3)cc(OCC(=O)O)c(=O)n4C)n2)CCS1 (stereo not shown) [Compound I-114] |
